Source: patent publication US20250312323A1 (Cavion, Inc., priority 2018, published 2025)
Where “and” joins values, the source holds several entries; their conditions need not be identical. Equal entries are not always repeated. Where two headings read alike, the source gives them in different places.

Legend:
[1] = Single-dose crossover pharmacokinetics of IR, MR1 and MR2 capsules (8 mg); assay type: in vivo, human; parameters: AUC72hr: unit not given beside the values; conditions: plasma, following a single 8 mg dose of IR CX-8998
[2] = assay type: in vivo; conditions: dog NOAEL 30 mg/kg
[3] = assay type: in vivo; conditions: rat NOAEL 300 mg/kg
[4] = test system: harmaline-induced tremor model in rats; conditions: 3 ascending doses per os; cited from earlier work

Compound	AUC72hr [1]	Cmax [1] [nM]	Total safety margin, AUC24 hr (animal AUC / human estimated AUC at steady state, 10 mg BID) ([2]; Day 90, female) [fold]	Total safety margin, Css (animal Cmax / human estimated Css at steady state, 10 mg BID) ([2]; Day 90, female)	Total safety margin, AUC24 hr (animal AUC / human estimated AUC at steady state, 10 mg BID) ([2]; Day 90, male) [fold]	Total safety margin, Css (animal Cmax / human estimated Css at steady state, 10 mg BID) ([2]; Day 90, male) [fold]	Total safety margin, AUC24 hr (animal AUC / human estimated AUC at steady state, 10 mg BID) ([3]; Day 90, female) [fold]	Total safety margin, Css (animal Cmax / human estimated Css at steady state, 10 mg BID) ([3]; Day 90, female) [fold]	Total safety margin, AUC24 hr (animal AUC / human estimated AUC at steady state, 10 mg BID) ([3]; Day 90, male) [fold]	Total safety margin, Css (animal Cmax / human estimated Css at steady state, 10 mg BID) ([3]; Day 90, male) [fold]	harmaline-induced tremor [4]	physiologic tremor before administration of harmaline [4]
C=C(C)c1ccc(CC(=O)N[C@H](C)c2ccc(OCC(F)(F)F)cn2)cc1 [M01]	6876	124	5.6	8 fold and 8.0 fold	6.5	10	13	21	6.8	13	–	–
CC1(C)C[C@@H](CN2CCC(F)(CNC(=O)c3cc(Cl)cc(Cl)c3)CC2)CCO1 [TTA-P2]	–	–	–	–	–	–	–	–	–	–	dose-dependent response	dose-dependent response to a reduction in physiologic tremor
C[C@@H](NC(=O)Cc1ccc(C(C)(C)O)cc1)c1ccc(OCC(F)(F)F)cn1 [M02]	–	122	–	–	–	–	–	–	–	–	–	–
